From US11780830B2, “Triazolone derivatives or salts thereof and pharmaceutical compositions comprising the same” (YUHAN CORPORATION, priority 2018, dated 2023)
Structures can show the parent of a compound that is named as a salt.

Legend:
Type in all cases: biochemical
[1] = biological target: T1, recombinant human DAO (diamine oxidase) (Homo sapiens, UniProt P19801); test: Activity on recombinant human DAO, method similar to the VAP-1 assay; details: substrate 1 mM putrescine; read-out: Inhibitory Activity (IC50, nM) DAO
T1 construct: purchased R&D systems
T1 sequence (P19801 20-751): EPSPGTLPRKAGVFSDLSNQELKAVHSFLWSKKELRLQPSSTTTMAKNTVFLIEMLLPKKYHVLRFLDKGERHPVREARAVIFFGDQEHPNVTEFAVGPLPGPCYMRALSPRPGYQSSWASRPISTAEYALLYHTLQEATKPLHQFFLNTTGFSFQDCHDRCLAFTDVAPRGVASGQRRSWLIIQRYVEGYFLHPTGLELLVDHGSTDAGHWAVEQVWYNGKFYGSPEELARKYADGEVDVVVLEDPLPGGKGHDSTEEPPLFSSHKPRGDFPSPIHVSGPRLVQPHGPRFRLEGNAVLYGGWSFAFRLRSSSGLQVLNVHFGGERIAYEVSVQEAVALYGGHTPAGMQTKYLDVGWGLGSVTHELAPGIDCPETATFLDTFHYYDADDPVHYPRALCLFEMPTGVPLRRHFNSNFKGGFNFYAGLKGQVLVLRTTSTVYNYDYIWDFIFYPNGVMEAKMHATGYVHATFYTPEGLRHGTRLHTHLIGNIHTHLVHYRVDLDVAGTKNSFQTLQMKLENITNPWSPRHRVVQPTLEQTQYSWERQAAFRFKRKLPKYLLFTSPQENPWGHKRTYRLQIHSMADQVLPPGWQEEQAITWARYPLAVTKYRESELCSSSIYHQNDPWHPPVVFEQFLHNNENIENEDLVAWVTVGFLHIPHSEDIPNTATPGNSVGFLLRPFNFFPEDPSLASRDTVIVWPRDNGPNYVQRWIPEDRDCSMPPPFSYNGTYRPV
Description: (§1) The compounds according to the present technology were evaluated in terms of activity on recombinant human VAP-1 (R&D systems) by measuring the level of hydrogen peroxide in horseradish peroxidase (HRP)-coupled reaction using Amplex Red Hydrogen Peroxide Assay Kit (Molecular Probes, Invitrogen, USA). The experiment was carried out at room temperature using benzylamine as a substrate. In the HRP-coupled reaction, hydrogen peroxide oxidation of 10-acetyl-3,7-dihydroxyphenoxazine (Amplex Red reagent) produces resorufin, which is a highly fluorescent compound. Briefly, the test compound was dissolved in dimethyl sulfoxide (DMSO) at a concentration of 20 mM. The dose-response assessment was made by 1:3 serial dilution in DMSO, thereby creating an 8 point curve. The concentration of the upper part was controlled according to the efficacy of the compounds, followed by dilution with a reaction buffer solution to obtain a final DMSO concentration less than 1%. To each well of a 96 black well plate, human VAP-1 purified in 50 mM sodium phosphate buffer solution (pH7.4) was added. The test compounds dissolved in DMSO were incubated with the human VAP-1 enzymes at 37° C. for 30 minutes. After 30-minute incubation, each well is added with a reaction mixture containing 200 uM Amplex Red reagent prepared from 50 mM sodium phosphate buffer solution (pH 7.4), 1 mM benzylamine, and 1 U/mL HRP. Fluorescence intensity was measured at several time points during 1-2 hours using a microplate reader (Flexstation3, Molecular Devices) under the wavelength condition exciting at 544 nm and reading the emission at 590 nm. The inhibitory effect of the compounds was measured as a decrease (%) in the signal rate as compared to the control group without any inhibitor (only diluted DMSO). Data was fixed to a logistic model with four variables and IC50 value was calculated using GraphPad Prism program.
(§2) In addition, the compounds according to the present technology were evaluated in terms of activity on a recombinant human MAO-A (monoamine oxidase-A, Sigma-Aldrich) and a recombinant human MAO-B (monoamine oxidase-B, Sigma-Aldrich) by using as substrates, 0.5 mM tyramine and 1 mM benzylamine, respectively, with a method similar to the activity evaluation method for recombinant human VAP-1. The compounds according to the present technology were also evaluated in terms of activity on a recombinant human DAO (diamine oxidase, R&D systems) by using as a substrate 1 mM putrescine with a method similar to the activity evaluation method for recombinant human VAP-1.

recombinant human VAP-1 = biological target: T2, recombinant human VAP-1 (Homo sapiens, UniProt Q16853); test: Activity on recombinant human VAP-1, HRP-coupled Amplex Red hydrogen peroxide assay; details: substrate 1 mM benzylamine; compound incubated with enzyme at 37° C. for 30 minutes; pH 7.4; read-out: Inhibitory Activity (IC50, nM) human VAP-1
T2 construct: purchased R&D systems
T2 sequence (Q16853 1-763): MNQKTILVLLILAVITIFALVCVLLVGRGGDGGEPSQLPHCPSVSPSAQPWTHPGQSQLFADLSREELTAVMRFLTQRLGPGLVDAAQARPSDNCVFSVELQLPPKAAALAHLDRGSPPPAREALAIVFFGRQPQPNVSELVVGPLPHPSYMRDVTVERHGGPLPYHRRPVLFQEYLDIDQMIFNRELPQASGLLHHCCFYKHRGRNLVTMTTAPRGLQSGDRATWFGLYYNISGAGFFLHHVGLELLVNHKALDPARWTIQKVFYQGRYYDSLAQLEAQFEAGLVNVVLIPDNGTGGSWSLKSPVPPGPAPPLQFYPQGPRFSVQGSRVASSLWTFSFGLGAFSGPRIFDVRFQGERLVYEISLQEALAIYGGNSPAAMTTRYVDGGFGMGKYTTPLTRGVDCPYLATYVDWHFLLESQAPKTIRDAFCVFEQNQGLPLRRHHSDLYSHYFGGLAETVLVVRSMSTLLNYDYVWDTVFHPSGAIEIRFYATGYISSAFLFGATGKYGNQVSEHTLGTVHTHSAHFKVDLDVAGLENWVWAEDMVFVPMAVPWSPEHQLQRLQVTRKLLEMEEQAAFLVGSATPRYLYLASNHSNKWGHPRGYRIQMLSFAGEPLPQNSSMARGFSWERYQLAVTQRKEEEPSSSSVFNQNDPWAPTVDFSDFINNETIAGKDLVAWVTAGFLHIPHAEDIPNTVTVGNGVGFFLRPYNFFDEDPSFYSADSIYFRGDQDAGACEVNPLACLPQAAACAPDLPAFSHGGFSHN
Description: as §1

[2] = biological target: T3, recombinant human MAO-A (monoamine oxidase-A) (Homo sapiens, UniProt P21397); test: Activity on recombinant human MAO-A, method similar to the VAP-1 assay; details: substrate 0.5 mM tyramine; read-out: Inhibitory Activity (IC50, nM) MAO-A
T3 construct: purchased Sigma-Aldrich
T3 sequence (P21397 1-527): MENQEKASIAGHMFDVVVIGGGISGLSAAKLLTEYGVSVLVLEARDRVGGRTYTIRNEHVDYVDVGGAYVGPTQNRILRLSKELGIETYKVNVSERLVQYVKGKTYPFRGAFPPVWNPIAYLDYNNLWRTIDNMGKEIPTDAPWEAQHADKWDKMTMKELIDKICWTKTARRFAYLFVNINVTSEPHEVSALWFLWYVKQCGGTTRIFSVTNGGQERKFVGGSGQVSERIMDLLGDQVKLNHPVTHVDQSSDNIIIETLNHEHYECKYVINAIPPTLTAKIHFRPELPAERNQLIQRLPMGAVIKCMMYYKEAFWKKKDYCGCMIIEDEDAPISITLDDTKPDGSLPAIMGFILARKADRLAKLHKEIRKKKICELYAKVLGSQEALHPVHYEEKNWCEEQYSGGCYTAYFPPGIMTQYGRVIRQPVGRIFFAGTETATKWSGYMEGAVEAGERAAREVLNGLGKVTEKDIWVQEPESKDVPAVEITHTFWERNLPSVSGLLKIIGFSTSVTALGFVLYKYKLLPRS
Description: as §1, §2

[3] = biological target: T4, recombinant human MAO-B (monoamine oxidase-B) (Homo sapiens, UniProt P27338); test: Activity on recombinant human MAO-B, method similar to the VAP-1 assay; details: substrate 1 mM benzylamine; read-out: Inhibitory Activity (IC50, nM) MAO-B
T4 construct: purchased Sigma-Aldrich
T4 sequence (P27338 1-520): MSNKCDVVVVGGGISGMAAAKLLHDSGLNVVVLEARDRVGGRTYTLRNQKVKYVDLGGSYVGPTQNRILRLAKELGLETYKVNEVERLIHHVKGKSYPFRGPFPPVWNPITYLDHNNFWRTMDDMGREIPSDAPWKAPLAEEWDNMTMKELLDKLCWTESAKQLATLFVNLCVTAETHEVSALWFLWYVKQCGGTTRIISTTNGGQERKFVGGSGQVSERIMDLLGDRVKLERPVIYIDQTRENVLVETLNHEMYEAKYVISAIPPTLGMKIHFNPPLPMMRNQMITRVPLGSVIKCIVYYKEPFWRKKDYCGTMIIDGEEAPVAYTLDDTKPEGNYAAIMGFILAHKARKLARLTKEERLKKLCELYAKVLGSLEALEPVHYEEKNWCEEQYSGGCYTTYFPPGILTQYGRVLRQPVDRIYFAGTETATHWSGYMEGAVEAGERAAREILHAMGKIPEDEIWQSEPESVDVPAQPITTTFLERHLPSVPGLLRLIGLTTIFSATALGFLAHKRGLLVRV
Description: as §1, §2

SMILES	IC50 [1] [nM]	IC50 (recombinant human VAP-1) [nM]	IC50 [2] [nM]	IC50 [3] [nM]
NC/C(=C/F)Cn1ncn(Cc2ccc(Br)s2)c1=O [Example 1, 2-[(2Z)-2-(aminomethyl)-3-fluoroprop-2-en-1-yl]-4-[(5-bromothiophen-2-yl)methyl]-2,4-dihydro-3H-1,2,4-triazol-3-one]	3020	5.7	18000	14
NC/C(=C\F)Cn1ncn(Cc2ccc(Br)s2)c1=O [Example 2, 2-[(2E)-2-(aminomethyl)-3-fluoroprop-2-en-1-yl]-4-[(5-bromothiophen-2-yl)methyl]-2,4-dihydro-3H-1,2,4-triazol-3-one hydrochloride]	3300	5.2	> 100000	14
NC/C(=C/F)Cn1ncn(Cc2ccc(-c3ccc(N)cc3)s2)c1=O [Example 3, 2-[(2Z)-2-(aminomethyl)-3-fluoroprop-2-en-1-yl]-4-[5-(4-aminophenyl)thiophen-2-yl]methyl-2,4-dihydro-3H-1,2,4-triazol-3-one hydrochloride]	860	4.7	72000	21
CN(C)c1cccc(-c2ccc(Cn3cnn(C/C(=C/F)CN)c3=O)s2)c1 [Example 4, 2-[(2E)-2-(aminomethyl)-3-fluoroprop-2-en-1-yl]-4-(5-[3-(dimethylamino)phenyl]thiophen-2-ylmethyl)-2,4-dihydro-3H-1,2,4-triazol-3-one hydrochloride]	9500	4.6	35000	50
CN(C)c1ccc(-c2ccc(Cn3cnn(C/C(=C/F)CN)c3=O)s2)cc1 [Example 5, 2-[(2E)-2-(aminomethyl)-3-fluoroprop-2-en-1-yl]-4-(5-[4-(dimethylamino)phenyl]thiophen-2-ylmethyl)-2,4-dihydro-3H-1,2,4-triazol-3-one hydrochloride]		3.3	> 100000	680
CN(C)c1cc(-c2ccc(Cn3cnn(C/C(=C/F)CN)c3=O)s2)ccc1F [Example 6, 2-[(2E)-2-(aminomethyl)-3-fluoroprop-2-en-1-yl]-4-(5-[3-(dimethylamino)-4-fluorophenyl]thiophen-2-ylmethyl)-2,4-dihydro-3H-1,2,4-triazol-3-one hydrochloride]	2900	3.4	> 100000	70
CS(=O)(=O)Nc1ccc(-c2ccc(Cn3cnn(C/C(=C/F)CN)c3=O)s2)cc1 [Example 7, N-4-[5-(1-[(2E)-2-(aminomethyl)-3-fluoroprop-2-en-1-yl]-5-oxo-1,5-dihydro-4H-1,2,4-triazol-4-ylmethyl)thiophen-2-yl]phenylmethansulfonamide hydrochloride]	1000	0.4	35000	11000
CNS(=O)(=O)c1cccc(-c2ccc(Cn3cnn(C/C(=C/F)CN)c3=O)s2)c1 [Example 8, 3-[5-(1-[(2E)-2-(aminomethyl)-3-fluoroprop-2-en-1-yl]-5-oxo-1,5-dihydro-4H-1,2,4-triazol-4-ylmethyl)thiophen-2-yl]-N-methylbenzenesulfonamide hydrochloride]	520	1.2	> 100000	210
CC(C)(C)NS(=O)(=O)c1cncc(-c2ccc(Cn3cnn(C/C(=C/F)CN)c3=O)s2)c1 [Example 186, 5-[5-({1-[(2E)-2-(aminomethyl)-3-fluoroprop-2-en-1-yl]-5-oxo-1,5-dihydro-4H-1,2,4-triazol-4-yl}methyl)thiophen-2-yl]-N-tert-butylpyridin-3-sulfonamide]	140	2.4		20000
NC/C(=C\F)Cn1ncn(Cc2ccc(-c3ccc(S(=O)(=O)N4CCOCC4)cc3)s2)c1=O [Example 198, 2-[(2E)-2-(aminomethyl)-3-fluoroprop-2-en-1-yl]-4-({5-[4-(morpholin-4-ylsulfonyl)phenyl]thiophen-2-yl}methyl)-2,4-dihydro-3H-1,2,4-triazol-3-one]	220	2.2		6200
